The subject of test [1] is cultured human mast cells (CHMC). As to the kind of experiment: CHMC low cell density IgE activation: tryptase assay. In kind it is cell-based. The note with it: anti-IgE. Summed up:
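Cultured human mast cells (1000-1500 cells/well, donor-dependent) equilibrated 1 hr at 37° C, then stimulated with anti-IgE for 30 min at 37° C. Tryptase released into the supernatant is measured with a fluorogenic tryptase substrate after 30 min at room temperature.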

Test [2] has the same test system. Kind of test: CHMC low cell density ionomycin activation: tryptase assay. The format is cell-based.

Bounds are passed on as bounds.

Usually IC50 stands for the concentration at which inhibition is half-maximal. A high value points to a need for much substance.

As to `CNC(=O)COc1cccc(Nc2ncc(F)c(Nc3ccc4c(c3)OCCCO4)n2)c1` [R935202, 5-Fluoro-N2-[3-(N-methylamino)carbonylmethyleneoxyphenyl]-N4-(3,4-propylenedioxyphenyl)-2,4-pyrimidinediamine], the half-inhibitory concentration (IC50) is 181 nM in test [1] and 9.77 µM in test [2].
For `CNC(=O)COc1cccc(Nc2nc(Nc3ccc4c(c3)NCCO4)ncc2F)c1` [R909247, N2-(1,4-Benzoxazin-6-yl)-5-fluoro-N4-[3-(N-methylamino)carbonylmethyleneoxyphenyl]-2,4-pyrimidinediamine], the results for the IC50 in test [1] and in test [2] were 2390 nM and more than 10 µM, respectively.
For `OCCOc1ccc(Nc2ncc(F)c(Nc3ccc4c(c3)OCCCO4)n2)cc1` [R935186, 5-Fluoro-N2-[4-(2-hydroxyethoxy)phenyl]-N4-(3,4-propylenedioxyphenyl)-2,4-pyrimidinediamine], the IC50 in test [1] is 211 nM; in test [2], more than 10 µM.
As to `CNC(=O)COc1cccc(Nc2ncc(F)c(Nc3ccc(F)c(C)c3)n2)c1` [R926923, 5-Fluoro-N4-(4-fluoro-3-methylphenyl)-N2-[3-[(N-methylamino)carbonylmethyleneoxy]phenyl]-2,4-pyrimidinediamine], the IC50 is 346 nM in test [1] and more than 10 µM in test [2].
On to `COC(=O)c1cc2ccc(Nc3ncc(F)c(Nc4cccc(O)c4)n3)cc2[nH]1` [R926903], for which the figures for the half-maximal inhibitory concentration (IC50) in test [1] and in test [2] were 243 nM and more than 10 µM, respectively.
The matching figures for `Fc1cnc(Nc2ccc3[nH]ncc3c2)nc1Nc1ccc(OC(F)(F)F)c(Cl)c1` [R935366, N4-(3-Chloro-4-trifluoromethoxyphenyl)-5-fluoro-N2-(indazoline-5-yl)-2,4-pyrimidinediamine]: 216 nM and more than 10 µM.
With `COC(=O)Cn1ncc2ccc(Nc3nc(Nc4ccc(OC(C)C)cc4)ncc3F)cc21` [R935218, 5-Fluoro-N2-(4-isopropoxyphenyl)-N4-[1-(methoxycarbonyl)methyl-indazoline-6-yl]-2,4-pyrimidinediamine], the half-inhibitory concentration (IC50) in test [1] was 4710 nM; in test [2], more than 10 µM.
In the same order, the values of `CC(C)(C)OC(=O)COc1ccc(Nc2nc(Cl)c(Cl)c(Nc3ccc(OCC(=O)OC(C)(C)C)cc3)n2)cc1` [R926576, N2,N4-Bis(4-tert-butoxyoxycarbonylmethyleneoxyphenyl)-5,6-dichloro-2,4-pyrimidinediamine] are more than 10000 nM and more than 10 µM.
The matching figures for `Nc1cccc(Nc2nc(Nc3cccc(Nc4ncc(F)c(Nc5cccc(N)c5)n4)c3)ncc2F)c1` [R950137, N4-(3-Aminophenyl)-N2-[[N3-[N4-(3-aminophenyl)]-5-fluoro-2,4-pyrimidinediamine]aminophenyl]-5-fluoro-2,4-pyrimidinediamine]: 2230 nM and more than 10 µM.
On to `CNCCNC(=O)c1cc2cc(Nc3ncc(F)c(Nc4ccc5oc(C(=O)NCCNC)cc5c4)n3)ccc2o1` [R950170, N2,N4-Bis[2-[2-(methylamino)ethyleneaminocarbonyl]-benzofurane-5-yl]-5-fluoro-2,4-pyrimidinediamine], for which the figures for the IC50 in test [1] and in test [2] were more than 10000 nM and more than 10 µM, respectively.
In the same order, the values of `OCCOc1cccc(Nc2ncc(F)c(Nc3ccc(CO)c(CO)c3)n2)c1` [R940292, N4-[3,4-Bis(hydroxymethyl)phenyl]-5-fluoro-N2-[3-(2-hydroxyethyleneoxy)phenyl]-2,4-pyrimidinediamine] are 683 nM and more than 10 µM.
The matching figures for `Nc1cccc(Nc2ncc(F)c(Nc3cccc(NCCOCc4ccccc4)c3)n2)c1` [R950175, N2-(3-Aminophenyl)-N4-[3-(N-benzyloxyethyleneamino)phenyl]-5-fluoro-2,4-pyrimidinediamine]: 1690 nM and more than 10 µM.
Take `Oc1cccc(Nc2nc(NC3CCN(Cc4ccccc4)CC3)ncc2F)c1` [R940264, N2-[4-(N-Benzylpiperidino)]-5-fluoro-N4-(3-hydroxyphenyl)-2,4-pyrimidinediamine]: the IC50 is 10000 nM in test [1] and more than 10 µM in test [2].
In the same order, the values of `CSc1nc2ccc(Nc3ncc(F)c(Nc4ccc5nc(SC)sc5c4)n3)cc2s1` [R950202, N2,N4-Bis[2-(methylthio)-1,3-benzothiaz-6-yl]-5-fluoro-2,4-pyrimidinediamine] are 3220 nM and more than 10 µM.
The matching figures for “5-Cyano-N2-(3-hydroxyphenyl)-N4-(methoxycarbonylbenzyl)-2,4-pyrimidinediamine [R925821]”: more than 10000 nM and more than 10 µM.
On to `CNC(=O)COc1cccc(Nc2ncc(F)c(Nc3cccc(OC(=O)N(C(=O)NC(C)C)C(C)C)c3)n2)c1` [R926916], for which the results for the IC50 in test [1] and in test [2] were 1960 nM and more than 10 µM, respectively.
On to `O=C(O)c1cnc(Nc2cccc(O)c2)nc1NC(C(=O)O)c1ccccc1` (centres unmarked) [R926535, 5-Carboxy-N2-(3-hydroxyphenyl)-N4-[N-(L)-phenylglycine)-2-pyrimidineamine], for which the IC50 in test [1] was more than 10000 nM; in test [2], more than 10 µM.
In the same order, the values of `O=C(CNc1cccc(Nc2ncc(F)c(Nc3cccc(O)c3)n2)c1)N1CCOCC1` [R950221, 5-Fluoro-N4-(3-hydroxyphenyl)-N2-[3-(N-morpholino)carbonylmethyleneaminophenyl]-2,4-pyrimidinediamine] are 636 nM and more than 10 µM.
Consider `CCOC(=O)C(C)(C)c1ccc(Nc2ncc(F)c(Nc3ccc(OC(C)C)cc3)n2)cc1` [R935150, N2-[4-[(1-Ethoxycarbonyl-1-methyl)ethyl]phenyl]-5-fluoro-N4-(4-isopropoxyphenyl)-2,4-pyrimidinediamine], for which the IC50 in test [1] came to 1930 nM; in test [2] it was 9.74 µM.
In the same order, the values of `CCOC(=O)COc1cccc(Nc2ncc(F)c(Nc3ccc(O)c(C(=O)O)c3)n2)c1` [R950290, N4-(3-Carboxy-4-hydroxyphenyl)-5-fluoro-N2-[3-ethoxycarbonylmethyleneoxyphenyl]-2,4-pyrimidinediamine] are more than 10000 nM and more than 10 µM.
The matching figures for `CC(C)Oc1ccc(Nc2nc(Nc3ccc4cnn(CCCO)c4c3)ncc2F)cc1` [R935290, 5-Fluoro-N2-[1-(3-hydroxypropyl)indazoline-6-yl]-N4-(4-isopropoxyphenyl)-2,4-pyrimidinediamine]: 340 nM and more than 10 µM.
Regarding `CNC(=O)COc1ccc(Nc2nc(Nc3ccc4c(c3)OCCO4)ncc2Br)cc1` [R925851, 5-Bromo-N2-(3,4-ethylenedioxyphenyl)-N4-[4-(N-methylamino)carbonylmethyleneoxyphenyl]-2,4-pyrimidinediamine], the values for the IC50 in test [1] and in test [2] were 925 nM and more than 10 µM, respectively.
The matching figures for `COC(=O)c1cc(Nc2nc(Cl)ncc2F)cc(C(F)(F)F)c1` [Compound R926861]: more than 10000 nM and more than 10 µM.
In the same order, the values of `Cc1nc(COc2cccc(Nc3ncc(F)c(Nc4ccc5oc(C(=O)O)cc5c4)n3)c2)no1` [R945134, N4-(2-Carboxybenzofuran-5-yl)-5-fluoro-N2-[3-(5-methyl-1,2,4-oxadiazol-3-yl)methyleneoxyphenyl]-2,4-pyrimidinediamine] are more than 10000 nM and more than 10 µM.
Consider `Fc1cnc(Nc2ccc3cn[nH]c3c2)nc1Nc1ccc2cn[nH]c2c1` [R935188, N2,N4-Bis(indazolin-6-yl)-5-fluoro-2,4-pyrimidinediamine], for which the IC50 in test [1] was 239 nM; in test [2], more than 10 µM.
The matching figures for `CNCc1cccc(Nc2nc(Nc3cccc(OCC(=O)NC)c3)ncc2F)c1` [R940317, N4-(3-N-methylaminomethylenephenyl)-5-fluoro-N2-[3-(methylaminocarbonylmethyleneoxy)phenyl]-2,4-pyrimidinediamine]: 913 nM and more than 10 µM.
The matching figures for `CCOC(=O)COc1cccc(Nc2nc(Nc3ccc4c(c3)OCCO4)ncc2F)c1` [R926774, N4-(3-Ethoxycarbonylmethyleneoxyphenyl)-N2-(3,4-ethylenedioxyphenyl)-5-fluoro-2,4-pyrimidinediamine]: 1930 nM and 7.94 µM.
`CCOC(=O)c1cnc(Nc2ccc(OCC(=O)NCC3CC3)cc2)nc1Nc1cccc(O)c1` [R925838, N2-[4-(N-Cyclopropylmethylamino)carbonylmethyleneoxyphenyl]-5-ethoxycarbonyl-N4-(3-hydroxyphenyl)-2,4-pyrimidinediamine]: the values for the IC50 in test [1] and in test [2] were more than 10000 nM and more than 10 µM, respectively.
In the same order, the values of `CNC(=O)COc1cccc(Nc2ncc(F)c(Nc3ccc4c(c3)OCC(=O)N4C)n2)c1` [R909261] are 930 nM and more than 10 µM.
The matching figures for `Cc1nc(COc2cccc(Nc3nc(Nc4ccc(OCC(N)=O)cc4)ncc3F)c2)no1` [R945133, N2-[4-(Aminocarbonylmethoxy)phenyl]-5-fluoro-N4-[3-(5-methyl-1,2,4-oxadiazol-3-yl)methyleneoxyphenyl]-2,4-pyrimidinediamine]: 1060 nM and more than 10 µM.
The matching figures for `CC(C)Oc1ccc(Nc2nc(Nc3ccc4[nH]ncc4c3)ncc2F)cc1` [R935197, 5-Fluoro-N2-(indazoline-5-yl)-N4-(4-isopropoxyphenyl)-2,4-pyrimidinediamine]: 174 nM and more than 10 µM.
Regarding `N#Cc1cnc(Nc2ccc(OCC(=O)N3CCOCC3)cc2)nc1Nc1ccc(OCC(=O)N2CCOCC2)cc1` [R925854, N2,N4-Bis[4-(N-morphonlino)carbonylmethyleneoxyphenyl]-5-cyano-2,4-pyrimidinediamine], the half-inhibitory concentration (IC50) is more than 10000 nM in test [1] and more than 10 µM in test [2].
Consider `O=C(O)COc1cccc(Nc2ncc(F)c(Nc3ccc(O)c(C(=O)O)c3)n2)c1` [R950291, N4-(3-Carboxy-4-hydroxyphenyl)-5-fluoro-N2-[3-carboxymethyleneoxyphenyl]-2,4-pyrimidinediamine], for which the IC50 is more than 10000 nM in test [1] and more than 10 µM in test [2].
The matching figures for `COc1ccc(Nc2ncc(C)c(Nc3ccc(OC)c(-c4ccccc4)c3)n2)cc1-c1ccccc1` [R935002, N2,N4-Bis[(4-methoxy-3-phenyl)phenyl]-5-methyl-2,4-pyrimidinediamine]: more than 10000 nM and more than 10 µM.
